Values of other authors as cited in patent publication US20140154783A1, “BIOPROCESSING” (priority 2009, published 2014).

How the values were obtained:
[1] = system: influenza A (avian plague virus); conditions: high concentrations; chick embryo fibroblasts infected with influenza A (avian plague virus); Klenk et al. 1972
neuraminidase = conditions: influenza-infected MDCK cells; Barrere et al. 1997; read-out: Ki, reversible inhibition of neuraminidase

SMILES | formation of hemagglutinin, neuraminidase, and mature virions [1] | Ki (neuraminidase)
O=CC[C@@H](O)[C@H](O)[C@H](O)CO [2-deoxy-D-glucose] | inhibited | 
N[C@H]1C(O)O[C@H](CO)[C@@H](O)[C@@H]1O (stereo partly drawn) [D-glucosamine] | inhibited | 
COc1cc(C(F)F)ccc1OC1(C(=O)O)CC(O)C(NC(C)=O)C(C(O)C(O)CO)O1 (stereo not drawn) [4-difluoromethyl-2-methoxy-phenyl-α-ketoside of N-acetylneuraminic acid] |  | 80 µM
